Common to all, as to assay: relative viability (nuclei count vs DMSO), 5 days (fraction); higher = more cells survive
Compound in assay [1]: C1=CC=C2C(=C1)N=C(S2)C(C#N)C3=NC(=NC=C3)NCCC4=CN=CC=C4 + CS(=O)(=O)CCNCc1ccc(-c2ccc3ncnc(Nc4ccc(OCc5cccc(F)c5)c(Cl)c4)c3c2)o1 [Lapatinib] (partner 2 µM)
A digest of the protocol:
(§1)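 Lung cancer cell lines were seeded in 1536-well plates and dosed by pin tool the next day, with either a single drug or a fixed anchor-drug dose combined with five library-drug doses (not always all listed) spaced in √10 steps. Five days later, one step fixed the cells and stained their nuclei (final 0.05% Triton X-100, 1% formaldehyde, 1 ug/ml Hoechst), and nuclei were counted on 4× images. Relative viability is the nuclei count in treated wells divided by the count in vehicle wells, and each value is the median of duplicate plates.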

Compound in assay [2]: COc1cc(N2CCC(N3CCN(C)CC3)CC2)ccc1Nc1ncc(Cl)c(Nc2ccccc2S(=O)(=O)C(C)C)n1 [NVP-TAE684] + CS(=O)(=O)CCNCc1ccc(-c2ccc3ncnc(Nc4ccc(OCc5cccc(F)c5)c(Cl)c4)c3c2)o1 [Lapatinib] (partner 2 µM)
The gist of the method: as §1

Compound in assay [3]: C#Cc1cccc(Nc2ncnc3cc(OC)c(OCCCCCCC(=O)NO)cc23)c1 [CUDC-101] + COc1cc2c(Oc3ccc(NC(=O)C4(C(=O)Nc5ccc(F)cc5)CC4)cc3F)ccnc2cc1OCCCN1CCOCC1 [Foretinib] (partner 0.25 µM)
A digest of the protocol: as §1

Compound in assay [4]: C#Cc1cccc(Nc2ncnc3cc(OC)c(OCCCCCCC(=O)NO)cc23)c1 [CUDC-101] + Cc1nc(NC(=O)N2CCC[C@H]2C(N)=O)sc1-c1ccnc(C(C)(C)C(F)(F)F)c1 [Alpelisib] (partner 2 µM)
A digest of the protocol: as §1

For LK-2, the relative viability in assay [1] (first compound 0.01581 µM) is 0.931; in assay [1] (first compound 0.05 µM), 0.917; in assay [1] (first compound 0.1581 µM), 1.15; in assay [1] (first compound 0.5 µM) it was 0.819; in assay [2] (first compound 0.2 µM) it was 1.01; in assay [2] (first compound 0.6325 µM), 0.721. Moreover, the relative viability in assay [2] (first compound 2 µM) turned out to be 0.69; in assay [3] (first compound 0.01 µM) it was 1.23; in assay [3] (first compound 0.03162 µM), 1.19; in assay [3] (first compound 0.1 µM) it was 0.957; in assay [3] (first compound 0.3162 µM), 0.819; in assay [3] (first compound 1 µM) it was 0.554. Besides, the relative viability was found to be 1.08 in assay [4] (first compound 0.01 µM); 0.959 in assay [4] (first compound 0.03162 µM); 1.09 in assay [4] (first compound 0.1 µM); 1.05 in assay [4] (first compound 0.3162 µM); 0.647 in assay [4] (first compound 1 µM).
Consider NCI-H520, for which the relative viability in assay [1] (first compound 0.005 µM) stood at 0.672; in assay [1] (first compound 0.01581 µM), 0.818; in assay [1] (first compound 0.05 µM) it was 1.01; in assay [1] (first compound 0.1581 µM), 1.15; in assay [1] (first compound 0.5 µM) it was 0.819; in assay [2] (first compound 0.2 µM), 0.761. The relative viability in assay [2] (first compound 0.6325 µM) turned out to be 0.884; in assay [2] (first compound 2 µM) it was 0.454; in assay [3] (first compound 0.01 µM), 0.961; in assay [3] (first compound 0.03162 µM) it was 0.746; in assay [3] (first compound 0.1 µM) it was 0.804; in assay [3] (first compound 0.3162 µM) it was 0.752. Moreover, the relative viability in assay [3] (first compound 1 µM) came to 0.509; in assay [4] (first compound 0.01 µM) it was 1.09; in assay [4] (first compound 0.1 µM) it was 0.791; in assay [4] (first compound 0.3162 µM) it was 0.706; in assay [4] (first compound 1 µM), 0.373.
Consider NCI-H1975, for which the relative viability in assay [1] (first compound 0.005 µM) was found to be 0.554; in assay [1] (first compound 0.01581 µM), 0.91; in assay [1] (first compound 0.05 µM), 0.831; in assay [1] (first compound 0.1581 µM) it was 0.908; in assay [1] (first compound 0.5 µM), 0.62; in assay [2] (first compound 0.2 µM) it was 0.734. Besides, the relative viability worked out at 0.791 in assay [2] (first compound 0.6325 µM); 0.318 in assay [2] (first compound 2 µM); 0.856 in assay [3] (first compound 0.01 µM); 1.03 in assay [3] (first compound 0.03162 µM); 0.99 in assay [3] (first compound 0.1 µM); 1.04 in assay [3] (first compound 0.3162 µM). The relative viability in assay [3] (first compound 1 µM) came out at 0.808; in assay [4] (first compound 0.01 µM) it was 0.714; in assay [4] (first compound 0.03162 µM), 0.634; in assay [4] (first compound 0.1 µM) it was 0.686; in assay [4] (first compound 0.3162 µM), 0.673; in assay [4] (first compound 1 µM) it was 0.538.

For the origin of these results see the supplement of paper PMC10307832.
